Assays:
[1] = molecular target: Mycobacterium tuberculosis cytochrome P450 CYP121 (Mycobacterium bovis BCG Pasteur (100% identical to Mycobacterium tuberculosis H37Rv)) (UniProt P9WPP7); assay: cell-based or functional assay
[2] = molecular target: Mycobacterium tuberculosis cytochrome P450 CYP121 (Mycobacterium bovis BCG Pasteur (100% identical to Mycobacterium tuberculosis H37Rv)) (UniProt P9WPP7); assay: spectrally estimated dissociation constant (Ks); UV/Vis titration of 2 µM CYP121, ΔA388-ΔA416 fitted to a hyperbola
[3] = molecular target: T1, CYP121 (Mycobacterium tuberculosis, UniProt P9WPP7); assay: CYP121 enzyme assay: transformation of cyclodipeptide with electron transport chain and NADPH, RP-HPLC analysis; format: biochemical; conditions: 30°C; for transformation of cyclodipeptide by CYP121: ~0.1 mM cyclodipeptide, 5 µM CYP121, electron transport chain, 0-60 min
Target sequence in this assay (P9WPP7 2-396 limits assumed): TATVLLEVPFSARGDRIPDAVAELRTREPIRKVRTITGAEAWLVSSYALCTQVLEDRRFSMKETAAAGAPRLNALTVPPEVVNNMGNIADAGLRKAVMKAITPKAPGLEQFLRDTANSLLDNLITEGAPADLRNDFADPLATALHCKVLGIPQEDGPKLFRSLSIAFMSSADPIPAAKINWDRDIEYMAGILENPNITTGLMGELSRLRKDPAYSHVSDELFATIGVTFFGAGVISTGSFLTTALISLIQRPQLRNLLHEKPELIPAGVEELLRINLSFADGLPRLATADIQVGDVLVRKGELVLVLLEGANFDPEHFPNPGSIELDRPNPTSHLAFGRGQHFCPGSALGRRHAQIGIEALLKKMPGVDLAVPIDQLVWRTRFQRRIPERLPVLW

[4] = molecular target: T1, CYP121; assay: Spectral binding titration of CYP121 by cyclodipeptide (UV/Vis absorbance spectroscopy, type I binding); conditions: 2 µM CYP121, Tris-HCl 50 mM pH 7.6 10% glycerol; ΔA388-ΔA416 versus cyclodipeptide concentration; mean of four experiments; read-out: binding constant (Ks)
[5] = molecular target: T1, CYP121; assay: Inhibition of CYP121 activity: cyclo(L-Tyr-L-Tyr) transformation in the presence of added compound, RP-HPLC analysis; format: biochemical
Target sequence in this assay (P9WPP7 2-396 limits assumed): as above

[6] = molecular target: T1, CYP121; assay: Co-crystallisation with CYP121 and X-ray structure of the complex; format: binding; conditions: co-crystals; 0.2 mM cyclo(L-Tyr-L-Phe), 0.8 mM cyclo(L-Tyr-L-Ala)
Target sequence in this assay (P9WPP7 2-396 limits assumed): as above

Sequence of Mycobacterium tuberculosis cytochrome P450 CYP121 (Mycobacterium bovis BCG Pasteur (100% identical to Mycobacterium tuberculosis H37Rv)) (P9WPP7 whole entry): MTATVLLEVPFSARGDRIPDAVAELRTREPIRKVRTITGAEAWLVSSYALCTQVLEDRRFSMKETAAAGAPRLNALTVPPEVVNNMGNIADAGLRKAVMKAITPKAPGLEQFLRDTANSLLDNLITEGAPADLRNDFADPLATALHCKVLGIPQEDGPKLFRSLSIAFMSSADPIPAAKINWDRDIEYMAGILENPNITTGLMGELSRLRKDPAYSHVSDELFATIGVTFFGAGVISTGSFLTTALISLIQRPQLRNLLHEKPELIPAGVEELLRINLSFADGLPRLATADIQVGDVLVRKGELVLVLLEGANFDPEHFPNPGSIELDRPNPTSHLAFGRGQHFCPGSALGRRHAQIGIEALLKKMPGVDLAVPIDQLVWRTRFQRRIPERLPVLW

## cyclo(L-Tyr-L-Tyr) (peptide)
[1]
  rate of cyclo(L-Tyr-L-Tyr) transformation (nmoles/min/nmole of CYP121): 3.8
[2]
  Kd: 27.6 µM

## O=C1N[C@@H](Cc2ccc(O)cc2)C(=O)N[C@H]1Cc1ccc(O)cc1 [cyclo(L-Tyr-L-Tyr)]
[3]; no inhibitor added
  time to complete conversion of cyclo(L-Tyr-L-Tyr) by CYP121: less than 30 min
[3]; in vitro conditions, exogenous electron transport chain, NADPH
  rate of cyclo(L-Tyr-L-Tyr) transformation: 3.8 nmoles/min/nmole of CYP121
[3]; NADPH
  transformation of cyclodipeptide by CYP121: complete consumption

## O=C1N[C@@H](Cc2ccc(O)c(O)c2)C(=O)N[C@H]1Cc1ccc(O)cc1 [cyclo(L-DOPA-L-Tyr), cyclo(L-3 or 5,4-dihydroxyphenylalanine-L-Tyr)]
[4]
  Kd: 14.7 ± 1.5 µM
[3]; NADPH
  transformation of cyclodipeptide by CYP121: no transformation was detected
[5]; 1.2 mM added cyclodipeptide, 60 min incubation at 30°C
  inhibition of cyclo(L-Tyr-L-Tyr) transformation: completely inhibits

## O=C1N[C@@H](Cc2c[nH]c3ccccc23)C(=O)N[C@H]1Cc1ccc(O)cc1 [cyclo(L-Tyr-L-Trp)]
[4]
  Kd: 63.4 ± 8.8 µM
[3]; NADPH
  transformation of cyclodipeptide by CYP121: can be transformed by CYP121, albeit less efficiently than cyclo(L-Tyr-L-Tyr)
[5]; 0.11 mM cyclo(L-Tyr-L-Tyr), 1.2 mM cyclo(L-Tyr-L-Trp), 60 min, 30°C, completely absent after 30 min without inhibitor
  initial cyclo(L-Tyr-L-Tyr) detected after 60 min incubation: ~30%

## C[C@@H]1NC(=O)[C@H](Cc2ccc(O)cc2)NC1=O [cyclo(L-Tyr-L-Ala)]
[6]
  binding to CYP121 (crystal structure of the complex): bind to CYP121

## O=C1N[C@@H](Cc2ccc(O)cc2)C(=O)N[C@H]1Cc1ccccc1 [cyclo(L-Tyr-L-Phe)]
[6]
  binding to CYP121 (crystal structure of the complex): bind to CYP121

## cyclo(L-Tyr-L-Trp) (peptide)
[1]
  inhibition of cyclo(L-Tyr-L-Tyr) transformation by CYP121 with 1.2 mM cyclo(L-Tyr-L-Trp) (RP-HPLC): 30

Reference: EP2088143A1, “Novel inhibitors of mycobacterium tuberculosis complex cytochrome P450 CYP121” (priority 2008, dated 2009)
